Test results: paper PMC9253294, “Differential Activation of TRPM8 by the Stereoisomers of Menthol” (Frontiers in Pharmacology, 2022)

Tests used:
[1] = parameters: method as in Hopp, 1993; Barel et al., 2009; details: human taste dilution studies; ref Hopp, 1993; Barel et al., 2009; cited from earlier work
[2] = system: residue I846 in the S4 of TRPM8; experiment: Thermodynamic mutant cycle analysis (TMCA) with patch-clamp recordings, residue I846 (I846V mutant); type: cell-based, mouse; details: WT vs I846V
Description: (§1) Murine TRPM8 was used in this study. […] Point mutations were made by Fast Mutagenesis Kit V2 (SBS Genetech). Primers were used to generate point mutations.
(§2) HEK293T cells were cultured in Dulbecco’s modified eagle medium supplemented (DMEM) with 10% fetal bovine serum and 1% penicillin-streptomycin solution at 37°C with 5% CO2. When cells grow up to 60%–70%, plasmids were transfected with lipofectamine 2000 following the manufacturer’s protocol. Patch-clamp recordings were performed 18–24 h after transfection.
Patch-clamp recordings were performed using a HEKA EPC10 amplifier driven by PatchMaster software (HEKA). Patch pipettes were prepared from borosilicate glass and fire-polished to a resistance of 4–6MΩ. A solution (pH 7.25) containing 130 mM NaCl, 0.2 mM EDTA, and 3 mM HEPES was used in both bath and pipette for recording. For whole-cell recording, cells were detached by trypsin and plated on the microscope cover glass for 30–60 min before the experiment. Transfected cells could be identified by green fluorescence. Cells were clamped at +80 mV and −80 mV for 350 ms, respectively, during recording, and the average current in the last 40 ms was performed. […]
(§3) Data from whole-cell recordings were analyzed in Igor Pro (WaveMatrix). […]
(§4) The P o of mouse TRPM8 activated by (−)-menthol was measured through single-channel recordings as in our previous study ([Xu et al., 2020]), and P o of TRPM8 mutant channels activated by (−)-menthol was estimated from noise analysis through whole-cell recordings. The mean current amplitude (I), the squared deviations in current amplitude from the mean value (σ ^2), and the single-channel current (i) were measured experimentally from a membrane patch of ion channels. Then, the number of ion channels clamped into that patch (N) is determined as N=I^2/i⋅I−σ^2.
For TRPM8 activation by other stereoisomers, P o max was measured from the concentration–response curve and L was determined from P o max by L = P o max/(1 − P o max). Both K d and L contribute to the measured apparent affinity by the equation EC50 = K d/(1 + L). […]

mouse TRPM8 = biological target: T1, mouse TRPM8 (Mus musculus, UniProt Q8R4D5); experiment: Whole-cell patch-clamp recordings of wild-type TRPM8 in transfected HEK293T cells; type: cell-based; details: for maximum current activated: −80 mV, normalized to 2 mM (−)-menthol; for EC50: WT TRPM8, whole-cell, ~25°C
T1 construct: expressed in transfected cells; host or cells: HEK293T
T1 sequence (Q8R4D5 whole entry): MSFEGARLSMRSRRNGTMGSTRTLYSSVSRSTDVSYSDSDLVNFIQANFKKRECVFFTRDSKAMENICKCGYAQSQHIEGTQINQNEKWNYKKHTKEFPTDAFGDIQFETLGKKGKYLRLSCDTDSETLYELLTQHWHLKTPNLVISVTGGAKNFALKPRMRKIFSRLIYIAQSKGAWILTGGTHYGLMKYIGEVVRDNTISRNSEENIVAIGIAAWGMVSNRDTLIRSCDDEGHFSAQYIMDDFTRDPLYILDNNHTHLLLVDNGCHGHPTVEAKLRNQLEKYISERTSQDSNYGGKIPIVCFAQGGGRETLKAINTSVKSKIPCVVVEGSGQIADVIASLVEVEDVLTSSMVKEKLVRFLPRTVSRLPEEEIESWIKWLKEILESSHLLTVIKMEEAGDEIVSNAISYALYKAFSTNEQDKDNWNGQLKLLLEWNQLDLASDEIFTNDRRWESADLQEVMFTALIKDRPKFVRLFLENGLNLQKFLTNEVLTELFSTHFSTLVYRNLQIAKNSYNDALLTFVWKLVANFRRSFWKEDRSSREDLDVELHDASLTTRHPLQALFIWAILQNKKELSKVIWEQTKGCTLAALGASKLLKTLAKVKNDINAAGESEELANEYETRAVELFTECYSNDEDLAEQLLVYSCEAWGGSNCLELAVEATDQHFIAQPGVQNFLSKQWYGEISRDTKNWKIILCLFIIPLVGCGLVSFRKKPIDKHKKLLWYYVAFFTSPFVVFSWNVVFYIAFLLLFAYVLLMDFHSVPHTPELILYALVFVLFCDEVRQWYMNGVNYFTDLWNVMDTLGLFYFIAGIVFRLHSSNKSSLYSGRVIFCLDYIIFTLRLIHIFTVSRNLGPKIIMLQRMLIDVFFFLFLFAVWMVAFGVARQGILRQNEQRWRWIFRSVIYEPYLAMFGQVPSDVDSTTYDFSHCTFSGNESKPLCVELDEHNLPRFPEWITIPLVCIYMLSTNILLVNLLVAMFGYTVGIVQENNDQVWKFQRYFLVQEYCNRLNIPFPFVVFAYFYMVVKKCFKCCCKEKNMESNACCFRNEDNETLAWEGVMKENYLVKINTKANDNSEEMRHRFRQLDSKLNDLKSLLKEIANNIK
Description: as §1, §2
(§5) Patch-clamp recordings were performed using a HEKA EPC10 amplifier driven by PatchMaster software (HEKA). Patch pipettes were prepared from borosilicate glass and fire-polished to a resistance of 4–6MΩ. A solution (pH 7.25) containing 130 mM NaCl, 0.2 mM EDTA, and 3 mM HEPES was used in both bath and pipette for recording. For whole-cell recording, cells were detached by trypsin and plated on the microscope cover glass for 30–60 min before the experiment. Transfected cells could be identified by green fluorescence. Cells were clamped at +80 mV and −80 mV for 350 ms, respectively, during recording, and the average current in the last 40 ms was performed. All recordings were performed at room temperature (∼25°C).
To perfuse (−)-menthol and other isomers during the patch-clamp recording, a rapid solution changer with a gravity-driven perfusion system was used (RSC-200, Bio-Logic). Each solution was delivered through a separate tube, so there was no mixing of solutions. The pipette tip was placed right in front of the perfusion outlet during recording to ensure the solution exchange was complete.
Data from whole-cell recordings were analyzed in Igor Pro (WaveMatrix). EC50 values were derived from fitting a Hill equation to the concentration–response relationship. Changes in EC50 by point mutation may be caused by either perturbation of ligand binding or channel gating or both. To distinguish these possibilities, the dissociation constant (K d) for ligand binding is estimated assuming the following gating scheme: C0↔KdC1↔LO, where L is the equilibrium constant for the final closed-to-open transition.
For TRPM8 activation by other stereoisomers, P o max was measured from the concentration–response curve and L was determined from P o max by L = P o max/(1 − P o max). Both K d and L contribute to the measured apparent affinity by the equation EC50 = K d/(1 + L).

[3] = system: residue D802 in the S3 of TRPM8; experiment: Thermodynamic mutant cycle analysis (TMCA) with patch-clamp recordings, residue D802; type: cell-based, mouse; details: cycle (−)-menthol vs (+)-neomenthol, WT vs D802 mutant
Description: as §1, §2
Patch-clamp recordings were performed using a HEKA EPC10 amplifier driven by PatchMaster software (HEKA). […] Transfected cells could be identified by green fluorescence. […]
as §3
as §4, with “N=I^2/i⋅I−σ^2. […]” for “N=I^2/i⋅I−σ^2.”

TRPM8 R842K mutant = biological target: T2, TRPM8 R842K mutant (Mus musculus, UniProt Q8R4D5, R842K); experiment: Whole-cell patch-clamp recordings of the R842K mutant channel; type: cell-based; details: −80 mV
T2 construct: expressed in transfected cells; host or cells: HEK293T
T2 sequence (Q8R4D5 whole entry R842K): as the sequence (Q8R4D5 whole entry) above, with R842K counted along it
Description: as §1, §2, §5
To perfuse (−)-menthol and other isomers during the patch-clamp recording, a rapid solution changer with a gravity-driven perfusion system was used (RSC-200, Bio-Logic). […]

[4] = +80 mV, compared to (−)-menthol

## CC(C)[C@H]1CC[C@@H](C)C[C@H]1O [(+)-neoisomenthol]
[1]
  cooling thresholds: much higher cooling thresholds
[2]; +80 mV, cycle (−)-menthol vs (+)-neoisomenthol
  coupling energy: 3.25 ± 0.11 kT
[2]; −80 mV, cycle (−)-menthol vs (+)-neoisomenthol
  coupling energy: 3.10 ± 0.18 kT
Mouse TRPM8; [4]
  Kd (binding affinity from gating scheme): slightly decreased affinity
Mouse TRPM8
  maximum current activated: much reduced

## CC(C)[C@@H]1CC[C@@H](C)C[C@@H]1O [(+)-neomenthol]
[3]; +80 mV
  coupling energy: 1.81 ± 0.10 kT
[3]; −80 mV
  coupling energy: 2.12 ± 0.06 kT
TRPM8 R842K mutant
  activation of the R842K mutant: cannot activate
[2]; ±80 mV, cycle (−)-menthol vs (+)-neomenthol, threshold 1.5 kT
  coupling energy: large coupling energy values
Mouse TRPM8; [4]
  Kd (binding affinity from gating scheme): slightly decreased affinity
  L value (gating equilibrium constant): significantly reduced
Mouse TRPM8; +80 mV
  EC50: 206 ± 11.4 µM
Mouse TRPM8
  maximum current activated: much reduced

## CC(C)[C@@H]1CC[C@@H](C)C[C@H]1O [(−)-menthol]
[1]
  cooling thresholds: lowest cooling thresholds
Mouse TRPM8; +80 mV
  EC50: 62.6 ± 1.2 µM
